Data taken from PubChem BioAssay (NCI).
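Compound exposure: 48 hours, 5 concentrations, 96-well plates. Abbreviation: GI50, concentration required for 50% inhibition of growth. The concentration for full growth arrest is given as TGI.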

Columns and labels:
Assay in all cases: NCI-60 cell line screen, 48 h
NCI-H23 lung = system: NCI-H23 lung
COLO 205 colon = system: COLO 205 colon
CAKI-1 renal = system: CAKI-1 renal
SK-MEL-2 melanoma = system: SK-MEL-2 melanoma
KM12 colon = system: KM12 colon
K-562 leukemia = system: K-562 leukemia
HS 578T breast = system: HS 578T breast
T-47D breast = system: T-47D breast
NCI-H226 lung = system: NCI-H226 lung
SK-MEL-28 melanoma = system: SK-MEL-28 melanoma
PC-3 prostate = system: PC-3 prostate
OVCAR-8 ovarian = system: OVCAR-8 ovarian
SR leukemia = system: SR leukemia
HT29 colon = system: HT29 colon
EKVX NSCLC = system: EKVX NSCLC
CCRF-CEM leukemia = system: CCRF-CEM leukemia
NCI-H522 lung = system: NCI-H522 lung
SK-MEL-5 melanoma = system: SK-MEL-5 melanoma
HCT-116 colon = system: HCT-116 colon
TK-10 renal = system: TK-10 renal
NCI/ADR-RES ovarian = system: NCI/ADR-RES ovarian
A498 renal = system: A498 renal
U251 CNS = system: U251 CNS
MDA-MB-231 breast = system: MDA-MB-231 breast
NCI-H460 lung = system: NCI-H460 lung
UACC-62 melanoma = system: UACC-62 melanoma
OVCAR-5 ovarian = system: OVCAR-5 ovarian
SK-OV-3 ovarian = system: SK-OV-3 ovarian
SNB-75 CNS = system: SNB-75 CNS
IGROV1 ovarian = system: IGROV1 ovarian
HCT-15 colon = system: HCT-15 colon
HL-60(TB) leukemia = system: HL-60(TB) leukemia
HOP-92 NSCLC = system: HOP-92 NSCLC
OVCAR-4 ovarian = system: OVCAR-4 ovarian
SF-539 CNS = system: SF-539 CNS
RPMI-8226 leukemia = system: RPMI-8226 leukemia
SW-620 colon = system: SW-620 colon
OVCAR-3 ovarian = system: OVCAR-3 ovarian
MALME-3M melanoma = system: MALME-3M melanoma
SN12C renal = system: SN12C renal
BT-549 breast = system: BT-549 breast
A549 NSCLC = system: A549 NSCLC
UACC-257 melanoma = system: UACC-257 melanoma
ACHN renal = system: ACHN renal
HCC-2998 colon = system: HCC-2998 colon
RXF 393 renal = system: RXF 393 renal
LOX IMVI melanoma = system: LOX IMVI melanoma
DU-145 prostate = system: DU-145 prostate
M14 melanoma = system: M14 melanoma
UO-31 renal = system: UO-31 renal
786-0 renal = system: 786-0 renal
MOLT-4 leukemia = system: MOLT-4 leukemia
SF-268 CNS = system: SF-268 CNS
HOP-62 NSCLC = system: HOP-62 NSCLC
MCF7 breast = system: MCF7 breast
SNB-19 CNS = system: SNB-19 CNS
SF-295 CNS = system: SF-295 CNS
MDA-MB-435 = system: MDA-MB-435

Cc1ncc(-c2ccnc(Nc3ccc(S(C)(=O)=O)cc3)n2)n1C(C)C
GI50 (NCI-H23 lung): 1790 nM
TGI (NCI-H23 lung): 7170 nM
GI50 (COLO 205 colon): 532 nM
TGI (COLO 205 colon): 2370 nM
GI50 (CAKI-1 renal): 805 nM
TGI (CAKI-1 renal): > 10000 nM
GI50 (SK-MEL-2 melanoma): 1380 nM
TGI (SK-MEL-2 melanoma): 3170 nM
GI50 (KM12 colon): 527 nM
TGI (KM12 colon): 2330 nM
GI50 (K-562 leukemia): 1590 nM
TGI (K-562 leukemia): > 10000 nM
GI50 (HS 578T breast): 977 nM
TGI (HS 578T breast): 5330 nM
GI50 (T-47D breast): 1380 nM
TGI (T-47D breast): > 8750 nM
GI50 (NCI-H226 lung): 902 nM
TGI (NCI-H226 lung): > 8470 nM
GI50 (SK-MEL-28 melanoma): 1280 nM
TGI (SK-MEL-28 melanoma): > 5690 nM
GI50 (PC-3 prostate): 1300 nM
TGI (PC-3 prostate): 7200 nM
GI50 (OVCAR-8 ovarian): 1330 nM
TGI (OVCAR-8 ovarian): > 10000 nM
GI50 (SR leukemia): 222 nM
TGI (SR leukemia): 2940 nM
GI50 (HT29 colon): 1290 nM
TGI (HT29 colon): > 10000 nM
GI50 (EKVX NSCLC): 1560 nM
TGI (EKVX NSCLC): 5540 nM
GI50 (CCRF-CEM leukemia): 987 nM
TGI (CCRF-CEM leukemia): > 7120 nM
GI50 (NCI-H522 lung): 1520 nM
TGI (NCI-H522 lung): 5290 nM
GI50 (SK-MEL-5 melanoma): 811 nM
TGI (SK-MEL-5 melanoma): 3290 nM
GI50 (HCT-116 colon): 275 nM
TGI (HCT-116 colon): > 10000 nM
GI50 (TK-10 renal): 1370 nM
TGI (TK-10 renal): > 10000 nM
GI50 (NCI/ADR-RES ovarian): 2460 nM
TGI (NCI/ADR-RES ovarian): > 10000 nM
GI50 (A498 renal): 647 nM
TGI (A498 renal): 2550 nM
GI50 (U251 CNS): 1110 nM
TGI (U251 CNS): > 10000 nM
GI50 (MDA-MB-231 breast): 1880 nM
TGI (MDA-MB-231 breast): > 9480 nM
GI50 (NCI-H460 lung): 931 nM
TGI (NCI-H460 lung): > 5330 nM
GI50 (UACC-62 melanoma): 1450 nM
TGI (UACC-62 melanoma): 3640 nM
GI50 (OVCAR-5 ovarian): 1090 nM
TGI (OVCAR-5 ovarian): > 8880 nM
GI50 (SK-OV-3 ovarian): 4160 nM
TGI (SK-OV-3 ovarian): > 10000 nM
GI50 (SNB-75 CNS): 377 nM
TGI (SNB-75 CNS): 2580 nM
GI50 (IGROV1 ovarian): 758 nM
TGI (IGROV1 ovarian): > 7910 nM
GI50 (HCT-15 colon): 1410 nM
TGI (HCT-15 colon): > 8600 nM
GI50 (HL-60(TB) leukemia): 1060 nM
TGI (HL-60(TB) leukemia): 4640 nM
GI50 (HOP-92 NSCLC): 926 nM
TGI (HOP-92 NSCLC): 6160 nM
GI50 (OVCAR-4 ovarian): 1870 nM
TGI (OVCAR-4 ovarian): > 8730 nM
GI50 (SF-539 CNS): 560 nM
TGI (SF-539 CNS): 2710 nM
GI50 (RPMI-8226 leukemia): 1570 nM
TGI (RPMI-8226 leukemia): 6180 nM
GI50 (SW-620 colon): 1020 nM
TGI (SW-620 colon): > 10000 nM
GI50 (OVCAR-3 ovarian): 853 nM
TGI (OVCAR-3 ovarian): > 8420 nM
GI50 (MALME-3M melanoma): 2560 nM
TGI (MALME-3M melanoma): 6040 nM
GI50 (SN12C renal): 1340 nM
TGI (SN12C renal): 9840 nM
GI50 (BT-549 breast): 925 nM
TGI (BT-549 breast): 7220 nM
GI50 (A549 NSCLC): 1340 nM
TGI (A549 NSCLC): > 10000 nM
GI50 (UACC-257 melanoma): 1940 nM
TGI (UACC-257 melanoma): 5620 nM
GI50 (ACHN renal): 603 nM
TGI (ACHN renal): > 9540 nM
GI50 (HCC-2998 colon): 1350 nM
TGI (HCC-2998 colon): 5590 nM
GI50 (RXF 393 renal): 211 nM
TGI (RXF 393 renal): 678 nM
GI50 (LOX IMVI melanoma): 537 nM
TGI (LOX IMVI melanoma): 9940 nM
GI50 (DU-145 prostate): 1320 nM
TGI (DU-145 prostate): > 10000 nM
GI50 (M14 melanoma): 1600 nM
TGI (M14 melanoma): 5040 nM
GI50 (UO-31 renal): 1000 nM
TGI (UO-31 renal): > 10000 nM
GI50 (786-0 renal): 922 nM
TGI (786-0 renal): > 10000 nM
GI50 (MOLT-4 leukemia): 1030 nM
TGI (MOLT-4 leukemia): 4990 nM
GI50 (SF-268 CNS): 1670 nM
TGI (SF-268 CNS): 6620 nM
GI50 (HOP-62 NSCLC): 1360 nM
TGI (HOP-62 NSCLC): > 10000 nM
GI50 (MCF7 breast): 523 nM
TGI (MCF7 breast): > 10000 nM
GI50 (SNB-19 CNS): 2230 nM
TGI (SNB-19 CNS): > 10000 nM
GI50 (SF-295 CNS): 1670 nM
TGI (SF-295 CNS): 6750 nM
GI50 (MDA-MB-435): 1410 nM
TGI (MDA-MB-435): > 5600 nM
